Laboratory results: patent publication US7119073B2, “Peptides and their use as inhibitors of hepatitis C virus ns3 protease” (Istituto Di Ricerche Di Biologia Molecolare P. Angeletti SpA, priority 2001, dated 2006)
Read-outs that look alike come from different tables or passages of the source. Where a SMILES comes first, the peptide text is derived from it. [ ]: non-standard residue; d: D form. The star is where a group is joined. Dip = N[C@H](C(=O)O)C(c1ccccc1)c1ccccc1; Abu(4,4-F2) = N[C@@H](CC(F)F)C(=O)O; Cha = N[C@@H](CC1CCCCC1)C(=O)O; X1 = O=C(O)c1ccc(CCN*)cc1

Experiments:
[1] = molecular target: T1, full length NS3 protein noncovalently complexed with the full-length NS4A cofactor protein (NS3/NS4A complex) (Hepatitis C virus genotype 1b, UniProt P26663); test: Full-length NS3-NS4A heterodimer protein assay (Assay A); format: biochemical, hepatitis C virus (HCV)
T1 construct: full length NS3 protein spanning residues 1027–1657 of the HCV polyprotein
T1 sequence (P26663 1027-1657): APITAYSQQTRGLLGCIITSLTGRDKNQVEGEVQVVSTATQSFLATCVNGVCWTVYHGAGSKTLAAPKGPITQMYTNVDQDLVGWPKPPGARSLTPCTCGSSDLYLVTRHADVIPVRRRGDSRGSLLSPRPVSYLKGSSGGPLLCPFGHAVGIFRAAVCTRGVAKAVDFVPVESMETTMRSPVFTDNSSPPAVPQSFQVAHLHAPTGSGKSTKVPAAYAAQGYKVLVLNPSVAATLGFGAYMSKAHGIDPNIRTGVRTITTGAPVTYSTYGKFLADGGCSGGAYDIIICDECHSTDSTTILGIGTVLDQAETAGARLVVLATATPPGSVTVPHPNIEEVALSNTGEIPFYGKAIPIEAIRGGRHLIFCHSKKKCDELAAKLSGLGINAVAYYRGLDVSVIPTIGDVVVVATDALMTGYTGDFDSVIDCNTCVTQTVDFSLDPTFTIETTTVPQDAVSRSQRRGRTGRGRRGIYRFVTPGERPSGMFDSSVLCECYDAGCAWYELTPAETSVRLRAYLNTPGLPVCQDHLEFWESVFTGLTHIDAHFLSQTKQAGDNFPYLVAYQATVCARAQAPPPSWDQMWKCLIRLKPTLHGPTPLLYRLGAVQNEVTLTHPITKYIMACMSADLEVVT
T1 sequence (P26663 1658-1711): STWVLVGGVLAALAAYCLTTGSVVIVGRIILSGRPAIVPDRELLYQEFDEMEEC
Method: Full-Length NS3-NS4A Heterodimer Protein Assay (Assay A)
(Gallinari, P., Paolini, C., Brennan, D., Nardi, C., Steinkühler, C. and De Francesco, R. Modulation of hepatitis C virus NS3 protease and helicase activities through the interaction with NS4A. Biochemistry 38, 5620–5632, 1999)
In this assay the full length NS3 protein spanning residues 1027–1657 of the HCV polyprotein, noncovalently complexed with the full-length NS4A cofactor protein (residues 1658–1711) was used. Assays were performed in 60 μl of a buffer containing 50 mM Hepes pH 7.5, 0.15 M NaCl, 0.1% (v/v) Triton X-100, 15% (v/v) glycerol, 10 mM DTT, 2 nM NS3/NS4A complex. To this assay mix 10 μM (final concentration) of a peptide substrate corresponding to the NS5AB cleavage site and having the sequence of the NS5A-NS5B peptide, were added. Incubation times at 23° C. were adjusted to obtain <10% conversion. Reactions were stopped by the addition of 40 μl of 1% TFA. Cleavage was determined by HPLC using a Merck-Hitachi chromatograph equipped with an autosampler. 80 μl samples were injected on a Lichrospher C18 reversed phase cartridge column (4×74 mm, 5 μm, Merck) and fragments were separated using a 10–40% acetonitrile gradient at 5%/min using a flow rate of 2.5 ml/min. Peak detection was done by monitoring both the absorbance at 220 nm and tryptophan fluorescence (λex=280 nm, λem=350 nm). Cleavage products were quantitated by integration of chromatograms with respect to appropriate standards. Kinetic parameters were calculated from nonlinear least-squares fit of initial rates as a function of substrate concentration with the help of a Kaleidagraph software, assuming Michaelis-Menten kinetics.
Ki values of peptide inhibitors were calculated from substrate titration experiments performed in the presence of increasing amounts of inhibitor. Experimental data sets were simultaneously fitted to eg.1 using a multicurve fit macro with the help of a Sigmaplot software: V=(VmaxS)/(Km([…])+S); (eq.1) Alternatively, Ki values were derived from IC50 values, calculated using a four-parameter logistic function, according to eq.2: IC50=(1+S/Km)Ki (eq.2)

[2] = molecular target: T2, NS3 protease domain complexed to a modified form of the NS4A peptide (Pep4AK) (Hepatitis C virus genotype 1b, UniProt P26663); test: HCV NS3 protease domain/NS4A cofactor peptide assay (Assay B); format: biochemical
T2 construct: NS3 protease domain (residues 1027–1206 of the HCV polyprotein)
T2 sequence (P26663 1027-1206, other chains not shown): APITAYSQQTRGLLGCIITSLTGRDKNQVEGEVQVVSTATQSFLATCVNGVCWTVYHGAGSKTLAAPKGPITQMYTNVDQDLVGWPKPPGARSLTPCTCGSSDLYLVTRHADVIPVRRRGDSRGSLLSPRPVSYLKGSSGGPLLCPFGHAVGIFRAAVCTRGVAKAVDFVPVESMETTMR

[3] = Table 1, NS3 protease domain/Pep4AK, 4AB peptide substrate, read-out: Assay B
[4] = NS3 protease domain/NS4A cofactor peptide assay, read-out: Assay B (IC50 class)

Structure (SMILES)	IC50 [1]	IC50 [2, 3]	further results
CC(C)COC(=O)N[C@@H](CCC(=O)O)C(=O)N[C@@H](CC(C)C)C(=O)N[C@@H](CS)C(=O)NCCc1ccc(C(=O)O)cc1Cl [Compound 178]	< 10 µM	< 1 µM	–
CC(C)COC(=O)NC(CCC(=O)O)C(=O)NC(CC(C)C)C(=O)NC(CS)C(=O)NCCc1ccc(CC(=O)O)cc1 (centres unmarked) [Compound 154]	< 100 µM	< 10 µM	–
CC(C)COC(=O)NC(CCC(=O)O)C(=O)NC(CC(C)C)C(=O)NC(CC(F)F)C(=O)NCCc1ccc(C(=O)O)cc1Cl (centres unmarked) [Compound 180]	–	–	IC50 ([1]; Table 1, full-length NS3/NS4A, NS5A-NS5B peptide substrate, read-out: Assay A): < 10 µM; IC50 ([2]; Assay B, Table 1, NS3 protease domain/Pep4AK, 4AB peptide substrate): < 1 µM
COc1ccc(Br)cc1CCNC(=O)C(CS)NC(=O)C(CC(C)C)NC(=O)C(CCC(=O)O)NC(=O)OCC(C)C (centres unmarked) [Compound 173]	< 100 µM	< 10 µM	–
CC(C)C[C@H](NC(=O)[C@H](CCC(=O)O)NS(=O)(=O)c1cccc2ccccc12)C(=O)N[C@@H](CS)C(=O)NCCc1ccccc1Cl [Compound 252]	< 10 µM	–	IC50 ([2]; Assay B, Table 2, NS3 protease domain/Pep4AK): < 10 µM
CC(C)CC(NC(=O)C(CCC(=O)O)NC(=O)OC(C)(C)C)C(=O)NC(CC(F)F)C(=O)NCCc1ccccc1Cl (centres unmarked) [Compound 115]	< 100 µM	< 10 µM	–
CC(C)C[C@H](NC(=O)C1(Cc2ccsc2C(=O)O)Cc2ccccc2N1)C(=O)N[C@@H](CC(F)F)C(=O)NCCc1c(F)cc(C(=O)O)cc1F (single isomer, unassigned) [Compound 708b]	< 100 µM	–	IC50 [2, 4]: < 10 µM
CC(=O)N[C@@H](CC(=O)O)C(=O)N[C@@H](CCC(=O)O)C(=O)N[C@H](C(=O)N[C@@H](CCC(=O)O)C(=O)N[C@@H](CC1CCCCC1)C(=O)N[C@@H](CC(F)F)C(=O)NCCc1ccc(C(=O)O)cc1)C(c1ccccc1)c1ccccc1 [Compound 321] (Ac-DE[Dip]E[Cha][Abu(4,4-F2)]-X1)	–	–	IC50 ([1]; Table 3, full-length NS3/NS4A, read-out: Assay A): < 1 µM; IC50 ([2]; Assay B, Table 3, NS3 protease domain/Pep4AK): < 1 µM
CC(C)CC(NC(=O)C(CCC(=O)O)NC(=O)OC(C)(C)C)C(=O)NC(CS)C(=O)NCCc1ccccc1Cl (centres unmarked) [Compound 114]	< 100 µM	< 10 µM	–
CC(C)COC(=O)NC(CCC(=O)O)C(=O)NC(CC(C)C)C(=O)NC(CS)C(=O)NCCc1ccc(CCC(=O)O)cc1 (centres unmarked) [Compound 156]	< 100 µM	< 10 µM	–
CC(C)COC(=O)NC(CCC(=O)O)C(=O)NC(CC(C)C)C(=O)NC(CS)C(=O)NCCc1cccc(C(=O)O)c1 (centres unmarked) [Compound 133]	< 100 µM	< 10 µM	–
CC(C)C[C@H](NC(=O)C1(Cc2ccsc2C(=O)O)Cc2ccccc2N1)C(=O)N[C@@H](CC(F)F)C(=O)NCCc1cccc(/C=C/C(=O)O)c1 (single isomer, unassigned) [Compound 706]	< 100 µM	–	IC50 [2, 4]: < 10 µM
CC(C)C[C@H](NC(=O)C1(Cc2cccc(C(=O)O)c2)CCc2ccccc2N1)C(=O)N[C@@H](CC(F)F)C(=O)NCCc1ccc(C(=O)O)cc1Cl (single isomer, unassigned) [Compound 712b]	< 100 µM	–	IC50 [2, 4]: < 10 µM
CC(C)C[C@H](NC(=O)C1(Cc2ccc(C(=O)O)s2)CCc2ccccc2N1)C(=O)N[C@@H](CC(F)F)C(=O)NCCc1ccc(C(=O)O)cc1Cl (single isomer, unassigned) [Compound 711b]	< 100 µM	–	IC50 [2, 4]: < 10 µM
CC(C)COC(=O)NC(CCC(=O)O)C(=O)NC(CC(C)C)C(=O)NC(CS)C(=O)NCCc1c(Cl)cccc1Cl (centres unmarked) [Compound 164]	< 100 µM	< 10 µM	–
CC(C)COC(=O)NC(CCC(=O)O)C(=O)NC(CC(C)C)C(=O)NC(CS)C(=O)NCCc1ccc(C(=O)O)cc1 (centres unmarked) [Compound 151]	< 100 µM	< 10 µM	–
